# Assay results reported in patent US20250221991A1, “COMBINATION THERAPY FOR THE TREATMENT OF CANCER METASTASES” (University of Cincinnati, priority 2024, published 2025).
# Where “and” joins values, the source holds several entries; their conditions need not be identical. Identical values can stand only once.
# Columns and labels:
# MIA PaCa-2 cells [1] = test: Deadherent survival (WST-1, poly-HEMA vs plastic), MIA PaCa-2; assay type: cell-based, human
# Method: (§1) Cells were seeded at a density of 10^4 cells/well in 96-well plates, either uncoated or in poly(2-hydroxyethyl methacrylate) (poly-HEMA) coated wells (3 mg of poly-HEMA in 50 μL 95% ethanol, let dry overnight, then washed twice with PBS, followed by one wash with medium before initiation of the experiment). Drugs were added in triplicates at the indicated concentrations for an incubation time of 48 h. At the 48-h time point, the indicator WST-1 was added to each well at 10% v/v final concentration. At the 60-, 80-, and 120-minute time points, the absorbance was measured at 450 nm using a MRX-TC Revelation plate reader.
# MDA-MB-231 cells [2] = test: Deadherent survival (WST-1, poly-HEMA vs plastic), MDA-MB-231; assay type: cell-based; conditions: for concentration range of significant growth inhibition on poly-HEMA: deadherent cells
# Method: as §1
# MDA-MB-231 cells [3] = test: Soft agar colony formation, MDA-MB-231; assay type: cell-based
# Method: (§2) The capability of cells to grow under anchorage-independent conditions is a hallmark of transformation and correlates with tumor progression in vivo. The assay was performed in a 60-mm dish with a bottom layer of 2 mL 0.5% agar (Noble Agar, Sigma) in the culture medium that is designated to the cells. The bottom agar was allowed to be solidified in the biosafety cabinet. Cells were suspended in 0.2% agar for PANC-1 cells, MIA PaCa-2 cells, and B16-F10 cells, but in 0.15% agar for MDA-MB-231 cells and 4T1 cells and then plated (1×10^5 cells/2 mL/dish) on top of the bottom layer. 400 μL culture medium with or without the indicated doses of drug treatment was added to cover the top agar layer every other day over 2 weeks for PANC-1, MIA PaCa-2 cells and over 3 weeks for MDA-MB-231 cells, respectively. The colonies in five microscopic fields (top, bottom, left, right and center) of each dish were photographed. […] Each treatment was repeated thrice.
# MIA PaCa-2 cells [4] = test: Soft agar colony formation, MIA PaCa-2; assay type: cell-based, human
# Method: as §2
# PANC-1 cells [5] = test: Soft agar colony formation, PANC-1; assay type: cell-based, human
# Method: as §2
# PANC-1 cells [6] = test: Deadherent survival (WST-1, poly-HEMA vs plastic), PANC-1; assay type: cell-based, human
# Method: as §1
# [7] = same concentration range that completely suppressed soft agar colony formation
structure (smiles),measurement,setting,value
CCCCNc1cc(C(=O)O)cc(S(N)(=O)=O)c1Oc1ccccc1 [bumetanide],concentration range suppressing proliferation on poly-HEMA,MIA PaCa-2 cells [1]; deadherent cells,1 to 5 µg/mL
same,concentration suppressing both adherent and deadherent cells,"MDA-MB-231 cells [2]; 48 h, WST-1",above 50 μg/mL
same,concentration range of significant growth inhibition on poly-HEMA,"MDA-MB-231 cells [2]; 48 h, WST-1",15 to 35 µg/mL
same,effect on the same cells in the adherent (plated) state,MDA-MB-231 cells [2]; in the concentration range that significantly inhibits cells on poly-HEMA,without affecting
[NH4+].[NH4+].[SH-].[SH-].[S]=[Mo]=[S] [ammonium tetrathiomolybdate],inhibition of soft agar colony size,MDA-MB-231 cells [3]; 0.5 μg/mL,43%
same,inhibition of soft agar colony size,MDA-MB-231 cells [3]; 1 μg/mL,75%
same,inhibition of soft agar colony size,MDA-MB-231 cells [3]; 2 μg/mL,93%
same,inhibition of soft agar colony size,MDA-MB-231 cells [3]; 4 μg/mL,94%
Cc1ccc(Nc2nccc(N(C)c3ccc4c(C)n(C)nc4c3)n2)cc1S(N)(=O)=O [pazopanib],concentration at which inhibition of soft agar colony formation reaches significance,MDA-MB-231 cells [3],0.5 μM and 0.24 μg/mL
same,concentration inhibiting soft agar colony formation,MIA PaCa-2 cells [4],2.1 μM and 1 μg/mL
same,concentration at which inhibition of soft agar colony formation reaches significance,PANC-1 cells [5],0.25 μM and 0.12 μg/mL
same,concentration inhibiting growth under both conditions (adherent and deadherent),PANC-1 cells [6]; 48 h,Above 2 μg/mL
same,concentration range increasing adherent cell growth,"PANC-1 cells [6]; adherent cells, 48 h",0.4 to 2 µg/mL
same,starting concentration significantly decreasing growth of deadherent cells,"PANC-1 cells [6]; poly-HEMA, 48 h",≥ 0.2 µg/mL
same,concentration range of significant growth inhibition on poly-HEMA,"MDA-MB-231 cells [2]; 48 h, WST-1",0.4 to 2.0 µg/mL
"C[S+](C)[O-] [DMSO, dimethyl sulfoxide]",soft agar colony frequency,MIA PaCa-2 cells [4]; 0.125%-0.25% (v/v),without impacting
same,soft agar colony frequency,PANC-1 cells [5]; 0.125%-0.25% (v/v),without impacting
same,effect on growth when plated on plastic or on poly-HEMA,PANC-1 cells [6]; [7],no effect
same,effect on growth when plated on plastic or on poly-HEMA,MIA PaCa-2 cells [1]; [7],no effect
same,effect on growth when plated on plastic or on poly-HEMA,MDA-MB-231 cells [2]; [7],no effect
